Here are results for four compounds from patent US6156899A, “N-aryl-2-hydroxyalkylamido compositions for inducing/stimulating hair growth and/or retarding hair loss and/or for treating hyperseborrhea and/or acne” (Societe L'Oreal S.A., priority 1997, dated 2000).

For one experiment, the target named is T1, androgen receptor (Rattus norvegicus, UniProt P15207).
T1 sequence (P15207 1-902): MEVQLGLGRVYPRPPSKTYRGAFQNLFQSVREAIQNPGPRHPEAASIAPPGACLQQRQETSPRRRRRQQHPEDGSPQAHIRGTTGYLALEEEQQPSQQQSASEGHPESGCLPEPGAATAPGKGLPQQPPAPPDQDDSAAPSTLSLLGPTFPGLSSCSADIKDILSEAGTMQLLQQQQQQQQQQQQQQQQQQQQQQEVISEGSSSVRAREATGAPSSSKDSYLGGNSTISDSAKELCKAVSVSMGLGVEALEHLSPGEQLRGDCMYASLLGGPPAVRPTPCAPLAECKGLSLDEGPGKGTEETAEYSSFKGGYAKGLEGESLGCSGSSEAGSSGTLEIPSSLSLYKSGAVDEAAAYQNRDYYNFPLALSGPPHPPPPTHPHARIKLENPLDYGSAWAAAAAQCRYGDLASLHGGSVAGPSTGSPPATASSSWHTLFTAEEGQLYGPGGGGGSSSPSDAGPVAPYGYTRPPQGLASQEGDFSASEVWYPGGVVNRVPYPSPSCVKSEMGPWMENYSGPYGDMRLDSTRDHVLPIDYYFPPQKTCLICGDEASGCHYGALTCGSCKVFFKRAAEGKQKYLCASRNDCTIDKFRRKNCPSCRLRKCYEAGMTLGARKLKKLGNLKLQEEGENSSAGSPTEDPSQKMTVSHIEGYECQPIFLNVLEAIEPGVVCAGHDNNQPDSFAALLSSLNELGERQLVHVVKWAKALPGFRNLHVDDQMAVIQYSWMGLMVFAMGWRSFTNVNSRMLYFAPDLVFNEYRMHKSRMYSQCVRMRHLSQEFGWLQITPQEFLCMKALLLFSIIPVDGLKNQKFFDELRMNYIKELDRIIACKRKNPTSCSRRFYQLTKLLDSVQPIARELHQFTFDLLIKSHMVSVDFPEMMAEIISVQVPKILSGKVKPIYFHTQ
The experiment can be described thus: Affinity (IC50) for the androgen receptor: inhibition of the binding of testosterone (Schilling and Liao technique). The procedure:
Measurement of the Affinity (IC50) of the Ethyl Ester of (4-Cyano-3-(trifluoromethyl)phenyl)(3,3,3-trifluoro-2-hydroxy-2-methylpropionyl)carbamic Acid (Example 1) and of (4-Cyano-3-(trifluoromethyl)phenyl)(3,3,3-trifluoro-2-hydroxy-2-methylpropionyl)carbamic Acid (Example 2) for the Androgen Receptor:
These measurements of receptor affinity for the androgen receptor were carried out according to the technique of Schilling and Liao, described in The Prostate, 5, p. 581-588 (1984).
During the experimentation, the reference molecule (mibolerone) was tested in parallel at 8 concentrations, in order to validate the experiment.

The subject of experiment [1] is rings of the thoracic region of the aorta (aortic smooth muscles). In words: Potassium channel opener activity: in vitro relaxant power on rings of the thoracic region of the aorta contracted with KCl. The class given is cell-based. The settings on record: for mixed activity (potassium channel opener/antiandrogen): conclusion from Tables I and II; for IC50: read-out: Inhibition contraction isolated aorta induced by K+: IC50. The procedure:
Measurement of the Activity of "Potassium Channel Opener" Type of the Ethyl Ester of (4-Cyano-3-(trifluoromethyl)phenyl)(3,3,3-trifluoro-2-hydroxy-2-methylpropionyl)carbamic Acid (Example 1) and of (4-cyano-3-(trifluoromethyl)phenyl)(3,3,3-trifluoro-2-hydroxy-2-methylpropionyl)carbamic Acid (Example 2) by the in Vitro Measurement of the Relaxant Power of the Molecules on Rings of the Thoracic Region of the Aorta (IC50):
The experiments were carried out according to the techniques of Newgreen et al. (Br. J. Pharmacol., 100, p. 605-613 (1990)), Bray et al. (Arch. Pharmacol., 344, p. 351-359 (1991)) and Wickerden et al. (Br. J. Pharmacol., 103, 1148-1152 (1991)).
After they had been mounted into the isolated organ vessels, the tissues (aortic smooth muscles) were subjected to an initial tension of 2 g.
After an equilibration period, the tissues were exposed to a potassium chloride solution (20 mM KCl), in order to obtain a sustained contractile response.
After stabilization of this contractile response, the relaxant activity (of potassium channel opener type) of the test molecules was evaluated as a function of the concentration applied.
During the experimentation, two reference molecules were employed: cromakalim and minoxidil.

The mark [2] stands for this setting: 20 mM KCl, thoracic aorta rings, initial tension 2 g.

Where two headings read alike, the source gives them in different places.

The IC50 is the point on the concentration scale where inhibition reaches its midpoint. As to `CCOC(=O)N(C(=O)C(C)(O)C(F)(F)F)c1ccc(C#N)c(C(F)(F)F)c1` (centres unmarked) [Example 1, Ethyl Ester of (4-Cyano-3-(trifluoromethyl)phenyl)(3,3,3-trifluoro-2-hydroxy-2-methylpropionyl)carbamic Acid], the IC50 at androgen receptor amounted to 2 µM. Moreover, in experiment [1], the “mixed activity (potassium channel opener/antiandrogen)” value is “mixed activity” and the IC50 was determined as 2000 nM.

Consider `CC(O)(C(=O)N(C(=O)O)c1ccc(C#N)c(C(F)(F)F)c1)C(F)(F)F` (centres unmarked) [Example 2, (4-Cyano-3-(trifluoromethyl)phenyl)(3,3,3-trifluoro-2-hydroxy-2-methylpropionyl)carbamic Acid], for which the IC50 on androgen receptor worked out at 4 µM; in experiment [1] it was 3000 nM. Besides, the “mixed activity (potassium channel opener/antiandrogen)” value in experiment [1] was “mixed activity”.

Regarding `CC1(C)Oc2ccc(C#N)cc2C(N2CCCC2=O)C1O` (centres unmarked) [cromakalim, reference compound], in experiment [1] (setting [2]), the IC50 was roughly 1000 nM.

Turning to `Nc1cc(N2CCCCC2)nc(N)[n+]1[O-]` [minoxidil, 2,4-diamino-6-piperidinopyrimidine 3-oxide, reference compound], the IC50 in experiment [1] (setting [2]) is roughly 1000 nM.
